# In US20100081679A1, “DIAMINOPYRIMIDINES AS FUNGICIDES” (Bayer CropScience AG, priority 2007, published 2010):
# Marks after values point to notes of the source that are not given here.
# Experiment: logP determination via retention times, calibrated with unbranched alkan-2-ones
# Type: physicochemical
# Settings: HPLC on reversed-phase C 18, EEC Directive 79/831 Annex V.A8, linear gradient 10% to 95% acetonitrile
# [1] = method *: 40° C., 0.1% aqueous formic acid and acetonitrile
Structure (SMILES),logP [1],"logP (method **: 43° C., 0.1% aqueous phosphoric acid and acetonitrile)"
O=C(N(c1ccc(Nc2ncc(Br)c(NCC3CC3)n2)cc1)C1CC1)C(F)(F)F [compound 465],2.74*,
O=C(Nc1cccc(Nc2ncc(Br)c(NCC3CC3)n2)c1)Oc1ccccc1 [compound 466],2.36*,
CC(C)(CF)C(=O)Nc1cccc(Nc2ncc(Br)c(NCC3CC3)n2)c1 [compound 467],1.99*,
CC(=O)Nc1cc(Nc2ncc(Br)c(NCC3CC3)n2)ccc1C [compound 468],1.51*,
FC(F)Sc1ccc(Nc2ncc(Br)c(NCC3CC3)n2)cc1 [compound 470],3.07*,
Cc1cc(C)cc(Nc2ncc(Br)c(NCC3CC3)n2)c1 [compound 471],2.36*,
Brc1ccc(Nc2ncc(Br)c(NCC3CC3)n2)cc1 [compound 472],2.84*,
Clc1ccc(Nc2ncc(Br)c(NCC3CC3)n2)cc1 [compound 474],2.67*,
N#Cc1ccc(Nc2ncc(Br)c(NCC3CC3)n2)cc1 [compound 475],2.7*,
FC(F)(F)Oc1ccc(Nc2ncc(Br)c(NCC3CC3)n2)cc1 [compound 476],3.1*,
CCOC(=O)c1cccc(Nc2ncc(Br)c(NCC3CC3)n2)c1 [compound 477],2.51*,
Oc1ccc(Nc2ncc(Br)c(NCC3CC3)n2)c(F)c1 [compound 478],1.51*,
CC(=O)Nc1ccc(Nc2ncc(Br)c(NCC3CC3)n2)cc1Cl [compound 479],1.68*,
CCN(C(C)=O)c1ccc(Nc2ncc(Br)c(NCC3CC3)n2)cc1 [compound 480],1.83*,
CC(=O)Nc1ccc(Nc2ncc(Br)c(NCC3CC3)n2)cn1 [compound 481],1.47*,
C=CC(=O)Nc1cccc(Nc2ncc(Br)c(NCC3CC3)n2)c1 [compound 482],1.66*,
CCC(=O)Nc1cccc(Nc2ncc(Br)c(NCC3CC3)n2)c1 [compound 483],1.66*,
O=C(c1ccc(Nc2ncc(Br)c(NCC3CC3)n2)cc1)N1CCOCC1 [compound 484],1.64*,

Structure (SMILES),logP [1],"logP (method **: 43° C., 0.1% aqueous phosphoric acid and acetonitrile)"
CN(C)S(=O)(=O)Oc1cccc(Nc2ncc(Br)c(NCC3CC3)n2)c1 [compound 485],2.51*,
CCOC(=O)Cc1ccc(Nc2ncc(Br)c(NCC3CC3)n2)cc1 [compound 486],2.18*,
CC(=O)c1cc(Nc2ncc(Br)c(NCC3CC3)n2)ccc1Cl [compound 487],2.67*,
CCC(=O)c1cc(Nc2ncc(Br)c(NCC3CC3)n2)ccc1O [compound 488],2.21*,
CCOC(=O)Nc1ccc(Nc2ncc(Br)c(NCC3CC3)n2)cc1O [compound 489],1.75*,
CN(C=O)c1ccc(Nc2ncc(Br)c(NCC3CC3)n2)cc1 [compound 490],1.63*,
O=C(Nc1cccc(Nc2ncc(Br)c(NCC3CC3)n2)c1)c1ccccc1 [compound 492],2.29*,
FC(F)C(F)(F)Oc1cccc(Nc2ncc(Br)c(NCC3CC3)n2)c1 [compound 493],3.1*,
CCC(=O)Nc1cc(Nc2ncc(Br)c(NCC3CC3)n2)ccc1O [compound 494],1.97*,
O=C1COCCN1c1ccc(Nc2ncc(Cl)c(NC3CC3)n2)cc1 [compound 495],1.17*,
CSc1cccc(Nc2ncc(C)c(NC3CC3)n2)c1 [compound 497],1.48*,
Fc1ccc(Nc2ncc(C(F)(F)F)c(NC3CC3)n2)cc1 [compound 498],,2.96**
Fc1ccc(Nc2ncc(Br)c(NC3CC3)n2)cc1 [compound 499],1.96*,
O=C1COCCN1c1ccc(Nc2ncc(Br)c(NC3CC3)n2)cc1 [compound 500],1.29*,
Brc1cnc(Nc2ccc(-n3ccnc3)cc2)nc1NC1CC1 [compound 501],0.93*,
C#Cc1cccc(Nc2ncc(Cl)c(NC3CC3)n2)c1 [compound 502],2.24*,
COc1cc(Nc2ncc(Cl)c(NCC3CC3)n2)ccc1NC(C)=O [compound 503],1.53*,
COC(=O)Cc1cccc(Nc2ncc(Cl)c(NCC3CC3)n2)c1 [compound 504],1.92*,
